Reference: PubChem BioAssay AID504642 (Southern Research Specialized Biocontainment Screening …, 2011)
Calls of active or inactive are those of the source. The rule behind the calls is not given here.

Tested on: not listed separately
Assay: cytotoxicity in HepG2 cells, cytotoxicity control, cell-based (AID 504642)
Conditions: HepG2 viability, cytotoxicity counter-screen; at 25 µM (top of the series)
In the case of `COC(=O)C(Nc1nc(SCC(=O)NC2CCCCC2)nc2ccccc12)c1ccccc1` (stereo unspecified), the viability is reported as 100% (inactive). For `O=C(/C=C/c1ccccc1)N1CCN(CCN2C(=O)c3cccc4cccc(c34)C2=O)CC1`, the viability was 91.1% (inactive).

Same assay, conditions: HepG2 viability, cytotoxicity counter-screen; at 50 µM (top of the series)
With `Cc1ccc(NC(=O)C2C3/C=C\CCCCC32)cc1C` (stereo unspecified) the viability was 101% (inactive). With `O=C(CSc1nc2ccccc2c(=O)[nH]1)NC1CCCCC1` the viability was 103% (inactive). In the case of `COc1cc(NC(=O)C/C(C)=N/NC(=O)c2ccccn2)c(OC)cc1Cl`, the viability is reported as 86.2% (inactive). In the case of `COC(=O)C1CC(=O)N(c2ccc(OCc3ccccc3Cl)cc2)C1` (stereo unspecified), the viability is reported as 98.6% (inactive). In the case of `CCOC1OC(=O)C(Cl)=C1Nc1ccccc1C` (stereo unspecified), the viability is reported as 97.8% (inactive). With `CCOC(=O)COc1ccc(/C=C2\NC(=S)N(CC)C2=O)cc1` the viability was 94.6% (inactive). For `CC(=NCc1ccc2c(c1)OCO2)C1=C(O)c2ccccc2C1=O`, the viability was 96.6% (inactive). In the case of `CCOC(=O)C(C)Sc1ncnc2c1nnn2-c1ccc(F)cc1` (stereo unspecified), the viability is reported as 94.1% (inactive). With `O=C1C(Br)=Cc2cccc3cccc1c23` the viability was 86.1% (inactive). In the case of `CC1CCN(C(=O)C2CCN(c3nnc(-n4cccc4)s3)CC2)CC1`, the viability is reported as 81.6% (inactive). For `COC(=O)C(C)Oc1ccc(-c2nccc(-c3ccccn3)n2)cc1` (stereo unspecified), the viability was 95.4% (inactive). With `CCOC(=O)COn1c2c(c3c4no[n+]([O-])c4ccc31)CCCC2` the viability was 85.5% (inactive). With `CCOC(=O)CNC(=O)[C@H](Cc1ccccc1)NC(=O)OCc1ccccc1` the viability was 97.3% (inactive). In the case of `Cc1nc(SCC(=O)NC2CCCCC2)[nH]c(=O)c1C`, the viability is reported as 105% (inactive). For `CCc1ccc(/C=C2/C(=O)N(C)C(=S)N2CC(=O)OC)s1`, the viability was 78.9% (inactive). For `O=C(CSc1nc2ccccc2c(=O)[nH]1)NCc1ccc(Cl)cc1`, the viability was 90.7% (inactive). With `COC(=O)CCc1nc2c(C#N)c(-c3ccc(Cl)cc3)ccn2n1` the viability was 102% (inactive). With `CC[N+](C)(CC)CCCCOc1ccc2c(c1)C(=O)c1cc(OCCCC[N+](C)(CC)CC)ccc1-2` the viability was 93.8% (inactive). For `COC(=O)c1ccc(CNc2c(N3CCCC3)c(=O)c2=O)cc1`, the viability was 97.5% (inactive). For `O=C(/C=C\c1cccs1)N1CCN(Cc2ccc3c(c2)OCO3)CC1`, the viability was 84.1% (inactive).

Tested on: HepG2 viability, cytotoxicity counter-screen
Assay: as above
Conditions: not given
Work on `CNc1nc(SCc2ccccc2Cl)nc2c1CCCC2` yielded a CC50 of 26.2 µM. `Cc1ccc2ccc3ccc(C)nc3c2n1` showed a CC50 of less than 0.195 µM. `COC(=O)c1cc(=O)n(-c2ccc(F)cc2)c(=Nc2ccc(F)cc2)s1` gave a CC50 of 19.4 µM. With `Cc1cccc(-c2oc3ccc(-c4ccc5c(c4)OCO5)cc3c2C#Cc2cncn2C)c1` the CC50 was 44.4 µM. `Oc1ccccc1/C=N/Nc1ccnc(SCc2ccccc2)n1` gave a CC50 of 20.1 µM. Work on `Cc1nn2c(NCc3ccccn3)cc(C(C)C)nc2c1-c1ccccc1` yielded a CC50 of less than 0.098 µM. Compound `CCOC(=O)c1ccc(NC(=O)Cn2ncc(Cl)c(Cl)c2=O)cc1` has a CC50 of 8.43 µM. Work on `c1ccc(/N=C2\N=C(Nc3ccccn3)c3ccccc32)nc1` yielded a CC50 of less than 0.098 µM. With `Cc1ccc(C(=O)N/N=C(/CC(=O)c2cccs2)C(F)(F)F)cc1` the CC50 was 27.5 µM. For `Cc1ccc2c(c1)c(C1=c3ccccc3=NC1=O)c(O)n2C`, the CC50 was 12.9 µM. With `S=c1nc[nH]c2nc[nH]c12` the CC50 was 7.74 µM. Compound `CC(C)NC(=O)c1sc(=S)n2c1[nH]c(=O)c1ccc(C(=O)NCCc3ccc(Cl)cc3)cc12` has a CC50 of 46.1 µM. `Cc1cccc(/C=C/C(=O)c2ccc([N+](=O)[O-])o2)c1` gave a CC50 of 7.91 µM. In the case of `CCC(C)Nc1ccc(NC(C)CC)cc1` (stereo unspecified), the CC50 is reported as 6.41 µM.
